Assay results published in ChEMBL document CHEMBL3046386, “Cyclophosphamide analogues: synthesis, spectroscopic study, and antitumor activity of diazaphosphorinanes” (Med Chem Res, 2011).

Experiments:
[1] = Lipophilicity, log P of the compound; conditions: octanol/water
[2] = Distribution coefficient, log D of the compound; conditions: octanol/water
K562 = test: Antiproliferative activity against Homo sapiens (human) K562 cells after 48 hr by MTT assay; assay type: functional, cell-based; conditions: K562, 48 h

In the case of `O=P1(N(CCCl)CCCl)NCCCO1` (stereo unspecified) [CYCLOPHOSPHAMIDE ANHYDROUS], the logP [1] is reported as 1.12 and the logD [2] is reported as 0.05.

Work on `Cc1ccc(OP2(=O)NCC(C)(C)CN2)cc1` yielded a logP [1] of 1.55 and a logD [2] of 0.73.

For `CC1(C)CNP(=O)(Nc2ccc(S(N)(=O)=O)cc2)NC1`, the logP [1] was -0.78, the IC50 (K562) was 58.2 µM and the logD [2] was -1.

Work on `CC1(C)CNP(=O)(NC(=O)c2ccccc2[N+](=O)[O-])NC1` yielded a logP [1] of 0.34, an IC50 (K562) of 6.87 µM and a logD [2] of -0.04.

Work on `CC1(C)CNP(=O)(NC(=O)c2ccc([N+](=O)[O-])cc2)NC1` yielded a logP [1] of 0.34, an IC50 (K562) of 6.49 µM and a logD [2] of -0.03.

Work on `CC1(C)CNP(=O)(NC(=O)c2cccc([N+](=O)[O-])c2)NC1` yielded a logP [1] of 0.34, an IC50 (K562) of 5.08 µM and a logD [2] of -0.03.
